Assay results: patent US20250109127A1, “METHODS OF USE OF PHENOXYPROPYLAMINE COMPOUNDS TO TREAT DEPRESSION” (Minerva Neurosciences, Inc., priority 2013, published 2025)
“And” between values parts separate entries of the source, which are not always exact repeats. Equal values may be shown once. Where a name gives a salt, the structure may show the parent alone.

Tested on: 5-HT release in the rat prefrontal cortex
Assay: Microdialysis: 5-HT release in prefrontal cortex after I.P. administration
Type: in vivo
Details: for 5-HT release (% of basal levels) measured in dialysates: individual animals, hydrochloride, 3 mg/kg; for 5-HT release (% of basal levels) measured in dialysates, MEAN / 5-HT (% of respective basal) MEAN: n = 8; for 5-HT (% of respective basal) MEAN: SON-117 group 0.1 mg/kg I.P.
Description: The aim of the study was to evaluate, using microdialysis, the effects of an intraperitoneal (I.P.) administration in rats of three different doses of SON-117 on dopamine and its metabolites, serotonin and its metabolite (5-HIAA), and norepinephrine levels in prefrontal cortex.
Thirty-two adult male Wistar rats were used for the whole study (4 groups of eight animals planned for the study, Table 1).
Surgery was performed on rats weighing about 300 g at the beginning of the experiments. Rats were anaesthetized with Ketamine (50 mg/kg) & Xylazine (15 mg/kg) by intramuscular administration. The animals were placed in a stereotaxic apparatus in the flat-skull position at a constant setting of −3.3 mm between ear bars and the incisor bar. The animals were treated with a local anesthesic (xylocaine 1%, Astra Zeneca) and an analgesic (Temgesic, from Schering Plough, 0.05 mg/kg, s.c.). A rostrocaudal midline incision was made with a lancet to expose the dorsal skull surface. The “stereotaxic zero” was defined by the Bregma in accordance with Paxinos and Watson's atlas (1986). A hole was drilled in the skull with a drill and the meninges were pierced with a sterile needle to implant a CMA12 guide cannula which later received the dialysis probe.
Coordinates used for implanting guide cannula in prefrontal cortex from Bregma were anteroposterior 3.7 mm, mediolateral 0.8 mm, and dorsoventral −2 mm (top of the probe was at −5 mm). The guide cannula was fixed to the skull with two stainless steel screws (1.88 mm outside diameter) anchored. An application of dental cement was added. A plastic collar allowed each animal to be tethered to a Swivel assembly of the CMA 120 awake animal system. Following surgery, rats were kept in individual cages and allowed to recover for a minimum of 3-5 days before the experimentation. The rats were handled and put in plastic bowl for 10 min at least every day to habituate the animals to their new environment for the dialysis. An I.P. administration with saline was also performed every day.
Dialysis probes (CMA12/3 mm, membrane, 20 kD cut-off, Carnegie Medicine, Stockholm, Sweden), were carefully washed before inserting into the guide cannula. The wash was performed with the artificial cerebrospinal fluid (aCSF) medium (NaCl 147 mM, KCl 2.7 mM, CaCl2 1.2 mM, MgCl2 0.85 mM) at room temperature. The dialysis system was then equilibrated at 20° C. at a perfusion rate of 1 μl/min with a Carnegie pump (CMA100). All catheters (FEP tubing, internal volume of 1.2 μl/10 cm, and tubing adaptors) used for microdialysis were treated in the same conditions.
The probes duly prepared were inserted into the guide cannula and the CMA120 Swivel assembly secured to the animal using a plastic collar. Flow through the dialysis probe with aCSF was maintained at a rate of 1 μl/min during the whole experimentation. The first four fractions (corresponding to 2 hours) were discarded to avoid the effects of parenchymal disturbance and to ensure that an approximate steady-state level was reached. Fractions were then collected over a period of 8.5 h during which time the animals remained quiet. The dialysates were automatically collected with an autosampler (microfraction collector CMA 140, Carnegie Medicin) and stored at −80° C. until analysis. […] Perfusion was then maintained for 7 hours with aCSF. The dialysates (30 μl) were collected into 300 μl vials, transferred into dry ice and then kept frozen (−80° C.) until analysis. Frozen samples were shipped to a partner for analysis. At the end of the microdialysis study, a PBS with colored ink was perfused through the probe in order to visualize the dialyzed area.
Catecholamine assay: Concentrations of dopamine, DOPAC, HVA, 5-HIAA, 5-HT, and norepinephrin were determined for each sample by HPLC coupled with electrochemical detection. […]

[1] = SON-117 3 mg/kg IP, T1 h 30-T2 h
[2] = SON-117 3 mg/kg IP, T1 h-T1 h 30
[3] = SON-117 3 mg/kg IP, T2 h 30-T3 h
[4] = SON-117 3 mg/kg IP, T2 h-T2 h 30
[5] = SON-117 3 mg/kg IP, T3 h 30-T4 h
[6] = SON-117 3 mg/kg IP, T3 h-T3 h 30
[7] = SON-117 3 mg/kg IP, T4 h 30-T5 h
[8] = SON-117 3 mg/kg IP, T4 h-T4 h 30
[9] = SON-117 3 mg/kg IP, T5 h 30-T6 h
[10] = SON-117 3 mg/kg IP, T5 h-T5 h 30
[11] = SON-117 3 mg/kg IP, T6 h 30-T7 h
[12] = SON-117 3 mg/kg IP, T6 h-T6 h 30
[13] = SON-117 3 mg/kg IP, T-1 h 30-T-1 h (pre-administration)

## Cc1nnc(-c2cc3c(OC[C@@H](O)CN4CCC(c5ccc(Cl)c(Cl)c5)CC4)cccc3o2)o1 [SON-117, (S)-1-(4-(3,4-dichlorophenyl)piperidino)-3-(2-(5-methyl-1,3,4-oxadiazol-2-yl)benzo(b)furan-4-yloxy)-2-propanol hydrochloride]
SON-117 3 mg/kg IP, T30-T1 h
  5-HT release (% of basal levels) measured in dialysates: 204.22 % of basal levels and 162.26 % of basal levels and 105.16 % of basal levels and 123.52 % of basal levels and 121.85 % of basal levels and 66.82 % of basal levels and 90.61 % of basal levels and 103.58 % of basal levels
[1]
  5-HT release (% of basal levels) measured in dialysates, MEAN: 172.47 % of basal levels
  5-HT release (% of basal levels) measured in dialysates: 272.64 % of basal levels and 219.61 % of basal levels and 141.23 % of basal levels and 159.07 % of basal levels and 135.20 % of basal levels and 206.96 % of basal levels and 105.40 % of basal levels and 139.63 % of basal levels
[2]
  5-HT release (% of basal levels) measured in dialysates, MEAN: 139.57 % of basal levels
  5-HT release (% of basal levels) measured in dialysates: 205.53 % of basal levels and 81.50 % of basal levels and 112.86 % of basal levels and 110.90 % of basal levels and 126.82 % of basal levels and 127.44 % of basal levels and 170.45 % of basal levels and 181.06 % of basal levels
[3]
  5-HT release (% of basal levels) measured in dialysates, MEAN: 134.29 % of basal levels
  5-HT release (% of basal levels) measured in dialysates: 158.52 % of basal levels and 136.53 % of basal levels and 84.73 % of basal levels and 118.94 % of basal levels and 141.58 % of basal levels and 105.71 % of basal levels and 168.18 % of basal levels and 160.12 % of basal levels
[4]
  5-HT release (% of basal levels) measured in dialysates, MEAN: 134.68 % of basal levels
  5-HT release (% of basal levels) measured in dialysates: 125.58 % of basal levels and 163.25 % of basal levels and 90.55 % of basal levels and 143.00 % of basal levels and 145.36 % of basal levels and 158.14 % of basal levels and 116.88 % of basal levels
[5]
  5-HT release (% of basal levels) measured in dialysates, MEAN: 122.79 % of basal levels
  5-HT release (% of basal levels) measured in dialysates: 112.86 % of basal levels and 166.51 % of basal levels and 77.19 % of basal levels and 149.84 % of basal levels and 120.64 % of basal levels and 72.84 % of basal levels and 159.63 % of basal levels
[6]
  5-HT release (% of basal levels) measured in dialysates, MEAN: 131.57 % of basal levels
  5-HT release (% of basal levels) measured in dialysates: 178.23 % of basal levels and 97.99 % of basal levels and 78.86 % of basal levels and 198.09 % of basal levels and 131.52 % of basal levels and 75.85 % of basal levels and 160.43 % of basal levels
[7]
  5-HT release (% of basal levels) measured in dialysates, MEAN: 263.96 % of basal levels
  5-HT release (% of basal levels) measured in dialysates: 119.63 % of basal levels and 88.15 % of basal levels and 75.09 % of basal levels and 174.97 % of basal levels and 117.70 % of basal levels and 1179.79 % of basal levels and 92.36 % of basal levels
[8]
  5-HT release (% of basal levels) measured in dialysates, MEAN: 118.76 % of basal levels
  5-HT release (% of basal levels) measured in dialysates: 40.46 % of basal levels and 171.66 % of basal levels and 76.54 % of basal levels and 186.25 % of basal levels and 112.71 % of basal levels and 98.26 % of basal levels and 145.41 % of basal levels
[9]
  5-HT release (% of basal levels) measured in dialysates, MEAN: 150.50 % of basal levels
  5-HT release (% of basal levels) measured in dialysates: 121.53 % of basal levels and 146.21 % of basal levels and 238.25 % of basal levels and 159.31 % of basal levels and 72.12 % of basal levels and 135.51 % of basal levels and 180.58 % of basal levels
[10]
  5-HT release (% of basal levels) measured in dialysates, MEAN: 176.38 % of basal levels
  5-HT release (% of basal levels) measured in dialysates: 118.62 % of basal levels and 189.63 % of basal levels and 161.82 % of basal levels and 191.70 % of basal levels and 132.84 % of basal levels and 100.25 % of basal levels and 410.45 % of basal levels and 105.75 % of basal levels
[11]
  5-HT release (% of basal levels) measured in dialysates, MEAN: 172.13 % of basal levels
  5-HT release (% of basal levels) measured in dialysates: 146.14 % of basal levels and 156.41 % of basal levels and 213.64 % of basal levels and 136.73 % of basal levels and 298.30 % of basal levels and 107.87 % of basal levels and 145.86 % of basal levels
[12]
  5-HT release (% of basal levels) measured in dialysates, MEAN: 156.40 % of basal levels
  5-HT release (% of basal levels) measured in dialysates: 135.63 % of basal levels and 218.45 % of basal levels and 123.22 % of basal levels and 169.93 % of basal levels and 132.54 % of basal levels and 87.76 % of basal levels and 130.92 % of basal levels and 252.75 % of basal levels
SON-117 3 mg/kg IP, T-30 min-T0 (pre-administration)
  5-HT release (% of basal levels) measured in dialysates, MEAN: 97.07 % of basal levels
[13]
  5-HT release (% of basal levels) measured in dialysates, MEAN: 101.16 % of basal levels
  5-HT release (% of basal levels) measured in dialysates: 104.98 % of basal levels and 84.68 % of basal levels and 89.82 % of basal levels
SON-117 3 mg/kg IP, T-1 h-T-30 min (pre-administration)
  5-HT release (% of basal levels) measured in dialysates, MEAN: 102.92 % of basal levels
SON-117 3 mg/kg IP, from 2 h to 3 h
  5-HT concentrations in prefrontal cortex, significant increase, max.: 175%
SON-117 3 mg/kg IP, from 5.5 h to 7 h
  5-HT concentrations in prefrontal cortex, significant increase: 272%
SON-117 3 mg/kg, 7 h after administration
  5-HT release, increase still present: 183%
SON-117 3 mg/kg, at 1 h
  levels of 5-HT compared to the citalopram treated group (significant): slightly lower
SON-117 3 mg/kg, at 5 h
  5-HT release, maximum increase observed: 272%
SON-117 3 mg/kg, at 5 h and 7 h
  levels of 5-HT compared to the citalopram treated group (significant): higher
T0-T30 min
  5-HT (% of respective basal) MEAN: 128.89 % of respective basal
T30-T1 h
  5-HT (% of respective basal) MEAN: 123.42 % of respective basal
T1 h 30-T2 h
  5-HT (% of respective basal) MEAN: 167.52 % of respective basal
T1 h-T1 h 30
  5-HT (% of respective basal) MEAN: 176.03 % of respective basal
T2 h 30-T3 h
  5-HT (% of respective basal) MEAN: 215.80 % of respective basal
T2 h-T2 h 30
  5-HT (% of respective basal) MEAN: 370.70 % of respective basal
T3 h 30-T4 h
  5-HT (% of respective basal) MEAN: 151.83 % of respective basal
T3 h-T3 h 30
  5-HT (% of respective basal) MEAN: 156.53 % of respective basal
T4 h 30-T5 h
  5-HT (% of respective basal) MEAN: 296.70 % of respective basal
T4 h-T4 h 30
  5-HT (% of respective basal) MEAN: 350.16 % of respective basal
T5 h 30-T6 h
  5-HT (% of respective basal) MEAN: 250.07 % of respective basal
T5 h-T5 h 30
  5-HT (% of respective basal) MEAN: 310.25 % of respective basal
T6 h 30-T7 h
  5-HT (% of respective basal) MEAN: 253.10 % of respective basal
T6 h-T6 h 30
  5-HT (% of respective basal) MEAN: 254.62 % of respective basal
T-30 min-T0 (before administration)
  5-HT (% of respective basal) MEAN: 112.68 % of respective basal
T-1 h 30-T-1 h (before administration)
  5-HT (% of respective basal) MEAN: 80.63 % of respective basal
T-1 h-T-30 min (before administration)
  5-HT (% of respective basal) MEAN: 106.27 % of respective basal
